Values of other authors in US11160278B2, “Use of active substances for controlling virus infection in plants” (Bayer CropScience Aktiengesellschaft, priority 2016, dated 2021).

Tests used:
[1] = test system: Pseudomonas syringae pv tabaci
[2] = test system: tobacco mosaic virus (TMV); details: also NahG transgenic tobacco

## COC(=O)N(OC)c1ccccc1COc1ccn(-c2ccc(Cl)cc2)n1 [Pyraclostrobin]
[1]
  resistance of tobacco against infection by Pseudomonas syringae pv tabaci: enhance the resistance
[2]
  resistance of tobacco against infection by TMV: enhance the resistance
